Reference: PubChem BioAssay (NCI)
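At the GI50, growth is halved. TGI: total growth inhibition.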

Columns and labels:
Test in all cases: inhibition of tumour cell growth, NCI panel, 384-well format
786-0 renal = system: 786-0 renal
A498 renal = system: A498 renal
A549 NSCLC = system: A549 NSCLC
ACHN renal = system: ACHN renal
BT-549 breast = system: BT-549 breast
CAKI-1 renal = system: CAKI-1 renal
CCRF-CEM leukemia = system: CCRF-CEM leukemia
COLO 205 colon = system: COLO 205 colon
DU-145 prostate = system: DU-145 prostate
EKVX NSCLC = system: EKVX NSCLC
HCC-2998 colon = system: HCC-2998 colon
HCT-15 colon = system: HCT-15 colon
HL-60(TB) leukemia = system: HL-60(TB) leukemia
HOP-62 NSCLC = system: HOP-62 NSCLC
HOP-92 NSCLC = system: HOP-92 NSCLC
HS 578T breast = system: HS 578T breast
HT29 colon = system: HT29 colon
IGROV1 ovarian = system: IGROV1 ovarian
K-562 leukemia = system: K-562 leukemia
KM12 colon = system: KM12 colon
LOX IMVI melanoma = system: LOX IMVI melanoma
M14 melanoma = system: M14 melanoma
MALME-3M melanoma = system: MALME-3M melanoma
MCF7 breast = system: MCF7 breast
MDA-MB-231 breast = system: MDA-MB-231 breast
MDA-MB-435 melanoma = system: MDA-MB-435 melanoma
MDA-MB-468 breast = system: MDA-MB-468 breast
MOLT-4 leukemia = system: MOLT-4 leukemia
NCI-H226 lung = system: NCI-H226 lung
NCI-H23 lung = system: NCI-H23 lung
NCI-H460 NSCLC = system: NCI-H460 NSCLC
NCI-H522 lung = system: NCI-H522 lung
NCI/ADR-RES ovarian = system: NCI/ADR-RES ovarian
OVCAR-3 ovarian = system: OVCAR-3 ovarian
OVCAR-4 ovarian = system: OVCAR-4 ovarian
OVCAR-5 ovarian = system: OVCAR-5 ovarian
OVCAR-8 ovarian = system: OVCAR-8 ovarian
PC-3 prostate = system: PC-3 prostate
RPMI-8226 leukemia = system: RPMI-8226 leukemia
RXF 393 renal = system: RXF 393 renal
SF-268 CNS = system: SF-268 CNS
SF-295 CNS = system: SF-295 CNS
SF-539 CNS = system: SF-539 CNS
SK-MEL-5 melanoma = system: SK-MEL-5 melanoma
SK-OV-3 ovarian = system: SK-OV-3 ovarian
SN12C renal = system: SN12C renal
SNB-19 CNS = system: SNB-19 CNS
SNB-75 CNS = system: SNB-75 CNS
SR leukemia = system: SR leukemia
SW-620 colon = system: SW-620 colon
T-47D breast = system: T-47D breast
TK-10 renal = system: TK-10 renal
U251 glioblastoma = system: U251 glioblastoma
UACC-257 melanoma = system: UACC-257 melanoma
UACC-62 melanoma = system: UACC-62 melanoma
UO-31 renal = system: UO-31 renal

SMILES: CN(C)CCNC(=O)NC[C@H]1CC[C@@H]2[C@H](O1)c1cc(C(F)(F)F)ccc1N[C@H]2c1ccccc1
- GI50 ([…]-0 renal): 528 nM
- TGI (786-0 renal): 19 µM
- GI50 (A498 renal): 88.3 nM
- TGI (A498 renal): 18.7 µM
- GI50 (A549 NSCLC): 124 nM
- TGI (A549 NSCLC): 16.9 µM
- GI50 (ACHN renal): 11.3 µM
- TGI (ACHN renal): 23.5 µM
- GI50 (BT-549 breast): 113 nM
- TGI (BT-549 breast): 10.4 µM
- GI50 (CAKI-1 renal): 223 nM
- TGI (CAKI-1 renal): 26.3 µM
- GI50 (CCRF-CEM leukemia): 28.9 nM
- TGI (CCRF-CEM leukemia): 57 nM
- GI50 (COLO 205 colon): 39.4 nM
- TGI (COLO 205 colon): 156 nM
- GI50 (DU-145 prostate): 279 nM
- TGI (DU-145 prostate): 4.69 µM
- GI50 (EKVX NSCLC): 261 nM
- TGI (EKVX NSCLC): 16.3 µM
- GI50 (HCC-2998 colon): 93.2 nM
- TGI (HCC-2998 colon): 11.7 µM
- GI50 (HCT-15 colon): 303 nM
- TGI (HCT-15 colon): 12 µM
- GI50 (HL-60(TB) leukemia): 32.5 nM
- TGI (HL-60(TB) leukemia): 82.4 nM
- GI50 (HOP-62 NSCLC): 618 nM
- TGI (HOP-62 NSCLC): 18.2 µM
- GI50 (HOP-92 NSCLC): 206 nM
- TGI (HOP-92 NSCLC): 16.1 µM
- GI50 (HS 578T breast): 36 nM
- TGI (HS 578T breast): 131 nM
- GI50 (HT29 colon): 168 nM
- TGI (HT29 colon): 443 nM
- GI50 (IGROV1 ovarian): 10.5 µM
- TGI (IGROV1 ovarian): 27 µM
- GI50 (K-562 leukemia): 53.3 nM
- TGI (K-562 leukemia): 257 nM
- GI50 (KM12 colon): 128 nM
- TGI (KM12 colon): 11.8 µM
- GI50 (LOX IMVI melanoma): 1170 nM
- TGI (LOX IMVI melanoma): 17.6 µM
- GI50 (M14 melanoma): 31.4 nM
- TGI (M14 melanoma): 92.3 nM
- GI50 (MALME-3M melanoma): 387 nM
- TGI (MALME-3M melanoma): 15 µM
- GI50 (MCF7 breast): 64.9 nM
- TGI (MCF7 breast): 14 µM
- GI50 (MDA-MB-231 breast): 235 nM
- TGI (MDA-MB-231 breast): 13.8 µM
- GI50 (MDA-MB-435 melanoma): 21.8 nM
- TGI (MDA-MB-435 melanoma): 45.8 nM
- GI50 (MDA-MB-468 breast): 29.6 nM
- TGI (MDA-MB-468 breast): 64.7 nM
- GI50 (MOLT-4 leukemia): 69.6 nM
- TGI (MOLT-4 leukemia): 193 nM
- GI50 (NCI-H226 lung): 2760 nM
- TGI (NCI-H226 lung): 23.1 µM
- GI50 (NCI-H23 lung): 124 nM
- TGI (NCI-H23 lung): 1980 nM
- GI50 (NCI-H460 NSCLC): 36 nM
- TGI (NCI-H460 NSCLC): 130 nM
- GI50 (NCI-H522 lung): 29.8 nM
- TGI (NCI-H522 lung): 73.6 nM
- GI50 (NCI/ADR-RES ovarian): 4.3 µM
- TGI (NCI/ADR-RES ovarian): 18.9 µM
- GI50 (OVCAR-3 ovarian): 37.5 nM
- TGI (OVCAR-3 ovarian): 164 nM
- GI50 (OVCAR-4 ovarian): 370 nM
- TGI (OVCAR-4 ovarian): 10.8 µM
- GI50 (OVCAR-5 ovarian): 380 nM
- TGI (OVCAR-5 ovarian): 12.7 µM
- GI50 (OVCAR-8 ovarian): 63.4 nM
- TGI (OVCAR-8 ovarian): 16.6 µM
- GI50 (PC-3 prostate): 128 nM
- TGI (PC-3 prostate): 17.7 µM
- GI50 (RPMI-8226 leukemia): 19.3 nM
- TGI (RPMI-8226 leukemia): 38.9 nM
- GI50 (RXF 393 renal): 78.4 nM
- TGI (RXF 393 renal): 13.3 µM
- GI50 (SF-268 CNS): 289 nM
- TGI (SF-268 CNS): 16.4 µM
- GI50 (SF-295 CNS): 171 nM
- TGI (SF-295 CNS): 2060 nM
- GI50 (SF-539 CNS): 93.7 nM
- TGI (SF-539 CNS): 10.8 µM
- GI50 (SK-MEL-5 melanoma): 39.8 nM
- TGI (SK-MEL-5 melanoma): 370 nM
- GI50 (SK-OV-3 ovarian): 42.5 nM
- TGI (SK-OV-3 ovarian): 18.1 µM
- GI50 (SN12C renal): 5.12 µM
- TGI (SN12C renal): 31.3 µM
- GI50 (SNB-19 CNS): 163 nM
- TGI (SNB-19 CNS): 19.3 µM
- GI50 (SNB-75 CNS): 152 nM
- TGI (SNB-75 CNS): 16.2 µM
- GI50 (SR leukemia): 20.4 nM
- TGI (SR leukemia): 41.6 nM
- GI50 (SW-620 colon): 89.4 nM
- TGI (SW-620 colon): 16 µM
- GI50 (T-47D breast): 325 nM
- TGI (T-47D breast): 12.9 µM
- GI50 (TK-10 renal): 14 µM
- TGI (TK-10 renal): 28.7 µM
- GI50 (U251 glioblastoma): 80.3 nM
- TGI (U251 glioblastoma): 18.1 µM
- GI50 (UACC-257 melanoma): 375 nM
- TGI (UACC-257 melanoma): 15.1 µM
- GI50 (UACC-62 melanoma): 56 nM
- TGI (UACC-62 melanoma): 14.5 µM
- GI50 (UO-31 renal): 20 µM
- TGI (UO-31 renal): 85.6 µM
